Data: patent US11161824B2, “Heterocyclic lipoxin analogs and uses thereof” (University College Dublin, National University of Ireland, …, priority 2016, dated 2021)
Where two headings read alike, the source gives them in different places.

Experiments:
NFkB [1] = assay: LPS-induced NFkB-driven luciferase activity in THP-1 LUCIA monocytes; assay type: cell-based; conditions: for reduction of LPS-induced NFkB luciferase activity: 30 min pre-treatment, then 24 h with 50 ng/ml LPS, relative to LPS; for concentration at which maximal inhibition of LPS-induced NFkB activity is reached: dose-response 10^-12 M to 10^-6 M; for effect on LPS-induced NFkB-driven luciferase activity (in words): doses 10^-12 M to 10^-6 M, 50 ng/ml LPS, 24 h; for potency in reducing LPS-induced NFkB activity, comparison in words: versus LXA4 or other analogues
Procedure: 1×10^5 THP-1 LUCIA monocytes were pre-treated for 30 min with native LXA4 1 (FIG. 1A), imidazole analogues 9 [(1R)-epimer (FIG. 1B) and (1S)-epimer (FIG. 1C)], vehicle or appropriate controls, at increasing doses ranging from 10^−12 M up to 10^−6 M. 10^8 HKLM was used as positive control for NFkB activation. After 24 h from stimulation with 50 ng/ml of LPS, supernatants were collected and NFkB-driven luciferase was measured. (d) Data are expressed as % Relative Luminescence Unit relative to LPS alone ±SEM (n=3), *=p<0.05, **=p<0.01, ***=p<0.001. Graphs display the statistical analysis of the tested compound vs LPS.
(§1) The experiments were based around a model which utilised 1×10^5/ml THP-1 monocytes stably expressing NFkB luciferase reporter gene (LUCIA).
(§2) Anti-inflammatory activity was assessed by testing 10 analogues (6 quinoxalines & 4 isoquinolines) in presence & absence of lipopolysaccharide (LPS). For each analogue, a dose-response from 10^−12 M up to 10^−6 M was performed. The vehicle control corresponded to 0.1% Ethanol. NFkB activator, Heat-Killed Listeria Monocytogenes (HKLM) (10^7 cells/ml), were used as positive control for luciferase induction. 10^−6 M Dexamethasone (Dex) was used as positive control for luciferase inhibition. […] Benzo-lipoxin A4 (BLX) was used as positive control for LXA4 analogues.
A 2-tailed, assuming unequal variance T-test analysis was performed on three independent experiments for each assay. P-values were considered significant when p<0.05. If p<0.05, then * or $; if p<0.01, then ** or $$ or ##; if p<0.001, then *** or $$$ or ###.
Cells were seeded in 96-well plates and pre-treated with increasing doses of LXA4, analogues or controls for 30 min, followed by 24 h of co-incubation with 50 ng/ml LPS. […] (*=statistical analysis vs LPS; $=statistical analysis vs LXA4)

[2] = system: zymosan-induced peritonitis; assay: Murine zymosan-induced peritonitis; assay type: in vivo, C57BL6/J mice; conditions: lavage 24 h
Procedure: As shown in FIG. 17 zymosan [1 mg per mouse in 200 μl H2O] induced a massive influx of leukocytes detected in lavage 24 h post-zymosan. […] Mean of total cell numbers=4.27×10^6/ml [basal]; 5.9×107 [vehicle pretreatment and zymosan]; 2.18×107 [LXA4 pretreatment and zymosan]. Pretreament with (R) and (S) epimers of 9 also attenuated cell influx: 2.5×10^7/ml [pretreatment with (1R)-9 and zymosan; p=0.0368, relative to zymosan alone]; 1.16×107 (1S)-9 [p=0.0048 relative to zymosan alone]. Importantly, (1R)-9 and (1S)-9 were administered at doses of 1.7 ng/g using the same regimen as LXA4. As anticipated the leukocyte influx was predominantly neutrophil [PMN]. PMN numbers were reduced to 35, 44 and 20% maximum response by LXA4, (1R)-9 and (1S)-9 epimers respectively.
Effect of LXA4 1 and imidazole-lipoxin analogues (1R)-9 and (1S)-9 on murine zymosan-induced peritonitis. Peritonitis was induced in groups of 5 male C57BL6/J mice by injection of zymosan (Sigma) i.p. (1 mg per mouse in 200 μl H2O). Mice were treated with LXA4 1; (5 ng/g); (1R)-9 (1.7 ng/g) or (1S)-9 (1.7 ng/g) (200 μl i.p.) 30 minutes prior to zymosan injection and again, 1 hour after zymosan injection. Treatments with LXA4 1, (1R)-9 and (1S)-9 are designated A, B and C respectively. Peritoneal cells were collected by lavage 24 hours after injection of zymosan. Cells were incubated with LIVE/DEAD Fixable Aqua stain (Molecular probes, Invitrogen) to isolate dead cells. Data shown are total cell counts/ml. Surface marker expression on peritoneal cells was assessed by flow cytometry with data collection on a CyAn (Beckman Coulter). Data were analyzed using FlowJo software (Tree Star). Cells were stained with BD Biosciences mAbs; Siglec-F-PE (E50-2440), F4/80-FITC (BM8), eBiosciences mAb; CD11b-PerCP (M1/70) and BioLegend mAbs; CD206-PECy7 (C068C2) and Ly6G-APCCy7 (1A8). Using appropriate isotype-controls, quadrants were drawn and data plotted on logarithmic scale density- or dot-plots to investigate the relative % of PMN, eoisiophils, M1 and M2 macrophgaes. […]

THP-1 monocytes = system: THP-1 monocytes
Procedure: Cytotoxicity Prior to functional assay testing, all compounds were screened for any cytotoxic effect, in the presence & absence of LPS, measuring the level of lactate dehydrogenase (LDH) released at A490nm.
The cells were treated as described above and, after 24 h, supernatant was collected and LDH activity assayed.

NFkB [3] = assay: NFkB-driven luciferase activity in resting conditions (absence of LPS) in THP-1 LUCIA monocytes; assay type: cell-based; conditions: 10^-12 M to 10^-6 M, 24 h
Procedure: 1×10^5 THP-1 LUCIA monocytes were treated for 30 min with native (a) LXA4 1, its stable imidazole-lipoxin analogues (1R)-9 and (1S)-9, vehicle or appropriate controls, at increasing doses ranging from 10^−12 M up to 10^−6 M. After 24 h, supernatants were collected and NFkB-driven luciferase was measured. Data are expressed as % Relative Luminescence Unit relative to LPS alone ±SEM (n=3).
as §1, §2

Th1 cytokine release = assay: LPS-induced Th1 cytokine release from THP-1 LUCIA monocytes; assay type: cell-based; conditions: 10^-11, 10^-9 or 10^-7 M; 50 ng/ml LPS 24 h; IL1β, IL6, IL12p70, IFNγ, TNF-α as per figure
Procedure: FIG. 2A-2E are graphs showing imidazole-lipoxin analogues (1R)-9 and (1S)-9 reduce LPS-induced Th1 cytokine release. 1×10^5 THP-1 LUCIA monocytes were pre-treated for 30 min with […], 10^−9 M or 10^−7 M of LXA4 1 and imidazole-lipoxin analogues (1R)-9 and (1S)-9, vehicle or appropriate controls. After 24 h from stimulation with 50 ng/ml of LPS, supernatants were collected and […] (FIG. 2A), IL6 (FIG. 2B), IL12p70 (FIG. 2C), IFNγ (FIG. 2D), and TNF-α (FIG. 2E) levels were measured. Data are expressed as % cytokine secretion relative to LPS alone ±SEM (n=3), *=p<0.05, **=p<0.01, ***=p<0.001.
FIG. 6A-6C are graphs showing that quinoxaline-lipoxin analogue (1R)-CT-4-43 inhibits LPS-induced Th1 cytokine release. 1×10^5 THP-1 LUCIA monocytes were pre-treated for 30 min with […], 10^−9 M or 10^−7 M of LXA4 and quinoxaline-lipoxin analogue (1R)-CT-4-43, vehicle or appropriate controls. After 24 h from stimulation with 50 ng/ml of LPS, supernatants were collected and IL13 (FIG. 6A), IL6 (FIG. 6B), and IFNγ (FIG. 6C) levels were measured. Data are expressed as % cytokine secretion relative to LPS alone ±SEM (n=3), *=p<0.05, **=p<0.01, ***=p<0.001.
FIG. 9A-9C are graphs showing that the isoquinoline-lipoxin analogue RB3 inhibit LPS-induced Th1 cytokine release. 1×10^5 THP-1 LUCIA monocytes were pre-treated for 30 min with 10^−11 M, 10^−9 M or 10^−7 M of LXA4 and isoquinoline-lipoxin analogue (1R)-RB3, vehicle or appropriate controls. After 24 h from stimulation with 50 ng/ml of LPS, supernatants were collected and IL1β(FIG. 9A), IL6 (FIG. 9B), and IL12p70 (FIG. 9C) levels were measured. Data are expressed as % cytokine secretion relative to LPS alone ±SEM (n=3), *=p<0.05, **=p<0.01, ***=p<0.001.

[4] = 1.7 ng/g i.p. 30 min before and 1 h after zymosan

CCCCC[C@H](O)/C=C/C=C\C=C\C=C\[C@@H](O)[C@@H](O)CCCC(=O)O [LXA4, Lipoxin A4, reference compound]
reduction of LPS-induced NFkB luciferase activity (NFkB [1]; 100 nM): 24±1.1% | concentration at which maximal inhibition of LPS-induced NFkB activity is reached (NFkB [1]): 100 nM | PMN numbers ([2]; 5 ng/g i.p. 30 min before and 1 h after zymosan): 35 % maximum response

C[C@@H]1C[C@H]2[C@@H]3CCC4=CC(=O)C=C[C@]4(C)[C@@]3(F)[C@@H](O)C[C@]2(C)[C@@]1(O)C(=O)CO [Dexamethasone]
effect on LPS-induced LDH activity (cytotoxicity, in words) (THP-1 monocytes; human, 24 h): significantly (p<0.001) increased

CCCCC[C@@H](O)c1c(/C=C/[C@@H](O)[C@@H](O)CCCC(=O)OC)nc(C)n1C [KG-5-22, (5S,6R,E)-methyl 5,6-dihydroxy-8-(5-((R)-1-hydroxyhexyl)-1,2-dimethyl-1H-imidazol-4-yl)oct-7-enoate]
reduction of LPS-induced NFkB luciferase activity (NFkB [1]; 1 pM): 43.7±8.9% | reduction of LPS-induced NFkB luciferase activity (NFkB [1]; 10 pM): 41.3±9.0% | effect on LPS-induced NFkB-driven luciferase activity (in words) (NFkB [1]): attenuating | NFkB-driven luciferase activity in resting conditions (in words) (NFkB [3]): did not induce | NFkB-driven luciferase activity in resting conditions (in words) (NFkB [3]; listed as KG5-22): does not elicit

CCCCC[C@@H](O)c1nc(/C=C/[C@@H](O)[C@@H](O)CCCC(=O)OC)cc2ccccc12 [(1R)-DM-163-RB3]
reduction of LPS-induced NFkB luciferase activity (NFkB [1]; 10 nM): 35.4±6.1% | reduction of LPS-induced NFkB luciferase activity (NFkB [1]; 100 nM): 37.9±9.7% | effect on LPS-induced NFkB-driven luciferase activity (in words) (NFkB [1]): attenuates | potency in reducing LPS-induced NFkB activity, comparison in words (NFkB [1]): most potent | NFkB-driven luciferase activity in resting conditions (in words) (NFkB [3]): did not elicit | effect on LPS-induced Th1 cytokine release (in words) (Th1 cytokine release): inhibit

CCCCC[C@@H](O)c1ccccc1/C=C/[C@@H](O)[C@@H](O)CCCC(=O)OC [Blx]
effect on LPS-induced LDH activity (cytotoxicity, in words) (THP-1 monocytes): significantly (p<0.001) decreased

CCCCC[C@@H](O)c1ncc(/C=C/[C@@H](O)[C@@H]2CCCC(=O)O2)c2ccccc12 [(1S)-DM-178-SB4, (S)-6-((R,E)-1-Hydroxy-3-(1-((R)-1-hydroxyhexyl)isoquinolin-4-yl)allyl)tetrahydro-2H-pyran-2-one]
reduction of LPS-induced NFkB luciferase activity (NFkB [1]; 1 uM): 26.8±8.7% | effect on LPS-induced NFkB-driven luciferase activity (in words) (NFkB [1]): attenuates

CCCCC[C@H](O)c1nc(-c2ccccc2)n(-c2ccccc2)c1/C=C/[C@@H](O)[C@@H](O)CCCC(=O)OC [(1S)-9, Methyl (5S,6R,E)-5,6-dihydroxy-8-(4-((S)-1-hydroxyhexyl)-1,2-diphenyl-1H-imidazol-5-yl)oct-7-enoate]
effect on LPS-induced NFkB-driven luciferase activity (in words) (NFkB [1]): attenuating | NFkB-driven luciferase activity in resting conditions (in words) (NFkB [3]): do not elicit | effect on LPS-induced Th1 cytokine release (in words) (Th1 cytokine release): reduce | PMN numbers [2, 4]: 20 % maximum response

CCCCC[C@@H](O)c1nc(-c2ccccc2)n(-c2ccccc2)c1/C=C/[C@@H](O)[C@@H](O)CCCC(=O)OC [(1R)-9, Methyl (5S,6R,E)-5,6-dihydroxy-8-(4-((R)-1-hydroxyhexyl)-1,2-diphenyl-1H-imidazol-5-yl)oct-7-enoate]
effect on LPS-induced NFkB-driven luciferase activity (in words) (NFkB [1]): attenuating | NFkB-driven luciferase activity in resting conditions (in words) (NFkB [3]): do not elicit | effect on LPS-induced Th1 cytokine release (in words) (Th1 cytokine release): reduce | PMN numbers [2, 4]: 44 % maximum response

CCCCCCC[C@@H](O)c1nc2ccccc2nc1/C=C/[C@@H](O)[C@@H](O)CCCC(=O)OC [(1R)-CT4-63, Methyl (5S,6R,E)-5,6-dihydroxy-8-(3-((R)-1-hydroxyoctyl)quinoxalin-2-yl)oct-7-enoate]
reduction of LPS-induced NFkB luciferase activity (NFkB [1]; 1 nM): 22.8±7.4% | concentration at which maximal inhibition of LPS-induced NFkB activity is reached (NFkB [1]): 1 nM | effect on LPS-induced NFkB-driven luciferase activity (in words) (NFkB [1]): attenuates | potency in reducing LPS-induced NFkB activity, comparison in words (NFkB [1]): not significantly different from LXA4

CCC[C@@H](O)c1nc2ccccc2nc1/C=C/[C@@H](O)[C@@H](O)CCCC(=O)OC [(1R)-CT4-68, Methyl (5S,6R,E)-5,6-dihydroxy-8-(3-((R)-1-hydroxybutyl)quinoxalin-2-yl)oct-7-enoate]
reduction of LPS-induced NFkB luciferase activity (NFkB [1]; 1 uM): 28.9±6.6% | effect on LPS-induced NFkB-driven luciferase activity (in words) (NFkB [1]): attenuates
